Here are results for 4 compounds from patent US20120321694A1, “COMPOSITIONS AND USES” (priority 2010, published 2012).

Test [1] has as its system human microglial cell line CHME. Briefly: Phagocytosis of Aβ1-42 by CHME microglial cell line. Type of test: cell-based. Conditions: FIG. 18. As to the method:
Phagocytosis of beta-amyloid 1-42 peptide by the human microglial cell line CHME was observed after the addition of TLR2 agonist containing adjuvants Protollin and Pam3CysLip peptide. […] The synthetic peptide sequence of the Pam3Cys Lip peptide is described herein: Pam3Cys—SQ EPAAPAAEAT PAAEAP. Protollin was used at concentration 1 ug per ml based on the LPS content from Shigella flexneri. Pam3Cys lip peptide was used at concentration of 5 ug per ml of the pure tri-palmitoylated peptide.
Additionally, cells were imaged using 42 HiLyte 488 Fluo (Anaspec, Inc.) at 2 ug per ml in DMEM complete media (Invitrogen). Lysotracker red staining was performed and slides were mounted and co-stained with DAPI to show the nucleus (blue). […] Lysotracker red reagent was purchased from Invitrogen and used as manufacturer recommendations.

Test [2] relates to Lineage- CD11b+ monocytes in peripheral blood. Briefly: Monocyte analysis and counting after adjuvant injection in mice. Type of test: in vivo, C57BL/6 mice. The protocol: (§1) 24-Hours after injection of the TLR adjuvants, peripheral blood was drawn from C57BL/6 mice via cardiac puncture with lithium-heparin as anticoagulant. Red blood cell lysis was performed twice on pooled blood with Ammonium Chloride-based Buffer (Sigma, Steinheim, Germany) and cells were counted with the EasyCount™ System (Immunicon). […] Cells were finally washed three times and fixed for 15 min. with a 2% paraformaldehyde solution in PBS. Fluorescence minus one (FMO) controls were always included in the assays for fluorescent compensation setting. Samples were acquired on a flow cytometer (BD FACSCanto II) and data analyzed with the FACSDiva software (BD Biosciences). Monocytes were identified by their Side/Forward scatter properties and gated as CD3-/CD45R/B220-/Ly-6G-/NK1.1-(Lineage-)/CD11b+ cells. CD11b+ monocyte frequency was reported as a percentage of the total cells excluding debris.
as §1, with “24 hours” for “24-Hours”, “each immunomodulator,” for “the TLR adjuvants,”, “min” for “min.”, “monocytes” for “monocyte”
(§2) Cells were finally washed twice and fixed for 15 min. with a 2% paraformaldehyde solution in PBS. FMOs controls were always included in the assays. Samples were acquired on a flow cytometer (BD FACSCanto II) and data analyzed with the FACSDiva software (BD Biosciences). Monocytes were identified and counted by their Side/Forward scatter properties, excluding debris and gated as CD3-/CD45R/B220-/Ly-6G-/NK1.1-(Lineage-)/CD11b+ cells.

Test [3] concerns CD11b+ peripheral blood monocytes. Description: Ex vivo uptake assay of Aβ1-42 by peripheral blood monocytes. The class given is cell-based, C57BL/6 mice. The protocol: (§3) Red blood cell lysis was performed twice on pooled blood with Ammonium Chloride-based Buffer (Sigma, Steinheim, Germany) and cells were counted with the EasyCount™ System (Immunicon).
(§4) Cells were finally washed twice and fixed for 15 min. with a 2% paraformaldehyde solution in PBS. FMOs controls were always included in the assays.
as §3

Test [4] concerns APPSwe/PS1 mice. Description: T-water maze. The note with it: for T-water maze, spatial memory: Example 21, twelve weekly injections, 3D MPL 50 μg, CRX527 20 μg, CRX601 20 μg i.p., AS01B 1/10th human dose i.m., vs non treated, FIG. 24. Type of test: in vivo. The protocol:
Five groups of APPSwe/PS1 mice received one a week for a period of 12 weeks the following treatment: • Gr1: APPSwe/PS1+NaCl 0.9% n(=20), i.p. injections • Gr4: APPSwe/PS1+CRX527 (20 μg/mouse, 130 μl, n=10), i.p. injections • Gr5: APPSwe/PS1+CRX601 (20 μg/mouse, 130 μl, n=10), i.p. injections • Gr6: APPSwe/PS1+3D MPL (50 μg/mouse, 130 μl, n=10), i.p. injections • Gr8 APPSwe/PS1+AS15 ( 1/10th of human dose, 50 μl, n=10), i.m. injections • Gr9: APPSwe/PS1+AS01B ( 1/10th of human dose, 50 μl, n=10), i.m. injections
Mice were tested during the “light on” phase of the day. Behavioral experimenter was blinded to the genetic and treatment status of animals. To assess hippocampal-dependent spatial learning and memory, mice were trained in the T-water maze task. In this paradigm, we evaluate the mouse's ability to remember the spatial location of submerged platform. The T-maze apparatus (length of stem, 64 cm; length of arms, 30 cm; width, 12 cm; height of walls, 16 cm) was made of clear fiberglass and filled with water (23±1° C.) at a height of 12 cm. A platform (11×11 cm) was placed at the end of the target arm and was submerged 1 cm below the surface. The acquisition phase allows to evaluate animals for left-right spatial learning. During the first two trials, platforms were placed on each arms of the maze to test the spontaneous turning preference of the mouse. After these two trials, the least chosen arm was reinforced by the escape platform. The mice were placed in the stem of the T-maze and choose to swim either left or right until they found the submerged platform and escape to it, to a maximum of 60 s. After reaching the platform, the mice remained on it for 20 s and then were immediately placed back in the maze. […] Repeated trials were presented on the same day up to a maximum of 48 trials. A rest period of at least 10-15 min intervened between each block of 10 trials. A mouse was considered to have learned the task when it made no errors in a block of five consecutive trials. The reversal learning phase was then conducted 48 h later. During this phase, the same protocol was repeated, except that the mice were trained to find the escape platform on the opposite side to that on which they had learned on acquisition phase. The number of trials to reach the criterion (five of five correct choices made on consecutive trials) was measured as well as the latency to find the escape platform.

The subject of test [5] is CD11b+ peripheral blood monocytes. Description: In vivo uptake assay of Aβ42 after immunization or passive immunotherapy. Details: species or system C57BL/6 mice. The note with it: FIG. 22. The protocol:
as §4, §2

Where no end group is shown, it is not given here.

For “Pam3Cys—SQ EPAAPAAEAT PAAEAP (Pam3Cys-SQEPAAPAAEATPAAEAP) [Pam3CysLip peptide, TLR2 agonist, tri-palmitoylated peptide from Neisseria meningitidis strain 8047]”, the “phagocytosis of beta-amyloid 1-42 peptide” value in test [1] (5 ug per ml, pre-incubation 18 hrs) was 86 % of cells. The amyloid phagocytic activity result in test [1] (Pam3CysLip peptide 5 ug per ml, Protollin 1 ug per ml (LPS content), compared to PBS) is on record as “higher amyloid phagocytic activity”.
For the compound QS21 [reference compound], the “number of monocytes, of total peripheral white blood cells” value in test [2] (24 hrs after single i.m. injection (5 μg QS21), FIG. 19A) came to 9.1%. The “activated Ly6C+ monocytes” value in test [2] (24 hrs after single i.m. injection (5 μg QS21), FIG. 19B) is given as 75%. In addition, the “ex vivo Aβ42 uptake by peripheral blood monocytes” value in test [3] (i.m. injection, 24 hrs, compared to PBS, QS21 (5 ug), liposomal MPL (5 ug) or MPL (5 ug), FIG. 20) is recorded as “does not promote Aβ uptake”.
Take `CCCCCCCCCCC[C@H](CC(=O)N[C@H]1[C@H](OC[C@H](NC(=O)C[C@@H](CCCCCCCCCCC)OC(=O)CCCCCCCCC)C(=O)O)O[C@H](CO)[C@@H](OP(=O)(O)O)[C@@H]1OC(=O)C[C@@H](CCCCCCCCCCC)OC(=O)CCCCCCCCC)OC(=O)CCCCCCCCC` [CRX527]: the “T-water maze, spatial memory” value is given as “spatial memory improvement” in test [4] and “significant improvements in behaviour” in test [4] (listed as CRX 527).
For the compound `CCCCCCCCCCC[C@H](CC(=O)N[C@H]1[C@H](OC[C@H](NC(=O)C[C@@H](CCCCCCCCCCC)OCCCCCCCCCC)C(=O)O)O[C@H](CO)[C@@H](OP(=O)(O)O)[C@@H]1OC(=O)C[C@@H](CCCCCCCCCCC)OCCCCCCCCCC)OCCCCCCCCCC` [CRX601], the “antibody-mediated Aβ uptake in peripheral blood monocytes” value in test [5] (CRX601 at 20 ug when combined with AS03 emulsion) is “partially quenched”; in test [5] (CRX601 at 20 ug, single i.m., plus 15 ug 2E7) it was “triggers highest Aβ uptake”; in test [5] (single i.m. injection of different doses plus 15 ug 2E7, Aβ Fluor i.v. 24 hr later), “Dose-response observed”. Besides, the “T-water maze, spatial memory” value in test [4] is on record as “spatial memory improvement”; in test [4] (listed as CRX 601), “significant improvements in behaviour”. Further, the “T-water maze, cognitive functions” value in test [4] (Example 22, i.m., 12× weekly from 3 months old, CRX601 2 μg, CRX601 2 ug in AS03, 3D MPL 5 ug, AS01B 1/10 human dose, vs PBS, unpaired t-tests, FIG. 27A) was “significant improvement of their cognitive functions”. Moreover, the “dose of maximum monocyte response” value in test [2] (single i.m., 0.2-20 ug/mouse, FIG. 12) stood at 10 µg. The “dose enough to trigger an increase of the monocyte count” value in test [2] (single i.m., 24 hrs, compared to PBS, FIG. 12) turned out to be 1 µg. Also, the “effect on monocyte count at 20 μg dose” value in test [2] (single i.m., FIG. 12) is “down modulated”. Further, the “ex vivo uptake of Aβ42 by peripheral blood monocytes” value in test [3] (i.m. AS01B mouse full dose (5 ug per mouse) or CRX601 2 μg, vs PBS group, FIG. 14) is “uptake an higher amount of Aβ42”.
